Where a name gives a salt, the structure may show the parent alone.
How the values were obtained:
[1] = test system: C57BL/6 mice subjected to CLP; experiment: Cecal ligation and puncture (CLP) mouse model of severe sepsis, survival; type: in vivo; conditions: for protection against severe CLP (survival, in words): doxorubicin 0.5ug/g, daunorubicin 0.6µg/g body weight at the time of procedure and 24 hours later, Figure 6
Method: We choose the cecal ligation and puncture (CLP) mouse model to investigate the in vivo effects of epirubicin. In CLP, sepsis results from a polymicrobial infectious abdominal origin, leading to bacteraemia and a systemic inflammatory response^15.
Animal care and experimental procedures were conducted in accordance with Portuguese and US guidelines and regulations after approval by the respective local committees (Instituto de Medicina Molecular and Instituto Gulbenkian de Ciência). All mice used were 8-12 weeks old. Mice were bred and maintained under specific pathogen-free (SPF) conditions. C57BL/6 and C57BL/6 ATM^-/- were obtained from the Instituto Gulbenkian de Ciência (a kind gift from Dr. Vasco Barreto). C57BL/6 Nrf2^-/- mice were provided originally from the RIKEN BioResource Center (Koyadai, Tsukuba, Ibaraki, Japan)^31 and subsequently at the Institute Gulbenkian de Ciência. Cecal Ligation and Puncture was performed as described previously^15.

IL-1β [2] = experiment: In vitro chemical screen (Spectrum collection): IL-1β secretion by E. coli challenged THP-1 cells, DAS-ELISA; type: cell-based, human; conditions: THP-1 cells, 10µM compound for 1 hour, then PFA-fixed E. coli (MOI 20) for 24 hours
Method: (§1) We identified 45 leading candidates (Figure 1A and Table I) that inhibited both cytokines.
(§2) THP-1 human monocytes (American Tissue Culture Collection-ATCC TIB-202) were plated in 96 well plates at 10^6 cell/ml and incubated with each one of ∼2320 compounds included in the Spectrum collection (Microsource Discovery Systems, Gaylordsville, CT) at 10µM for 1 hour. Cells were then challenged with 4% PFA-fixed DH5α E.coli at a Multiplicity of Infection (MOI) of 20 bacterial cells per THP-1 cell for an additional 24 hours. The cell supernatants were collected and IL-1β and TNF cytokines quantified by DAS-ELISA, using Human IL-1β/IL-1F2 DuoSet® and Human TNF DuoSet® (R&D Systems ®), respectively, according to company's protocol.
(§3) We generated a working subset of The RNAi Consortium (TRC) shRNA lentiviral vector library ^33,33 that allows for the silencing of most of the genes that are either human kinases or phosphatases. This subset was composed of 1440 individually arrayed lentiviral shRNA vectors targeting ∼700 genes, after selecting the most efficient shRNAs (two on average) based on available silencing efficiency data from the Broad Institute of MIT and Harvard. THP-1 cells were plated in 96 well plates at 10^6 cell/ml and infected with shRNA-expressing lentivirus. 48 hrs later infected cells were selected with puromycin. After the 3 days of selection, plates were duplicated. One of the plates was used to measure the cell number using Alamar Blue® cell viability assay (Invitrogeia®), according to manufacturer's instructions. In the other plate, cells were stimulated with 4% PFA-fixed DH5α E.coli at a Multiplicity of Infection (MOI) of 20 bacterial cells per THP-1 cell. Twenty-four hours after stimulation, cell supernatants were collected and IL-1β and TNF cytokines quantified by DAS-ELISA. All data values from IL-1β and TNF secretion assays were normalized by dividing the amount of IL-1β and TNF in the conditioned media 24, 12, 8, 6, 4 or 2 hrs after E. coli stimulation by the number of cells in each well and then by the average concentration per cell of the plate. Results were logarithmic natural transformed. Scores were sorted in ascending order and graphed. We calculated 1.5 SDEVs above and below the mean to identify the genes that changed IL-1β and TNF secretion when silenced. The same approach was used to identify the compounds that changed IL-1β and TNF secretion. The selected genes were submitted to two or more rounds of phenotypic validation.

TNF [3] = experiment: In vitro chemical screen (Spectrum collection): TNF secretion by E. coli challenged THP-1 cells, DAS-ELISA; type: cell-based, human; conditions: THP-1 cells, 10µM compound for 1 hour, then PFA-fixed E. coli (MOI 20) for 24 hours
Method: as §1, §2, §3

TNF [4] = experiment: Concentration-response validation: TNF production by E. coli challenged THP-1 cells; type: cell-based; conditions: Homo sapiens; E. coli challenged THP-1 cells (4 hours) after pre-incubation (1 hour) with increasing concentrations; read-out: half-inhibitory concentration (IC50) for TNF
Method: (§4) • Figure 1 represents a primary screen to identify compounds in the Spectrum Collection library that inhibit the secretion of TNF and IL-1β. (A) it is a two-dimension plot of TNF and IL-1β production Z scores calculated upon THP-1 cells challenge with PFA-fixed E. coli for 24 hours in the presence of 10µM of each compound. The square defines the area in which compounds are considered primary hits, i.e., inhibiting both TNF and IL-1β, (B) represents the IL-1β and TNF production by E. coli challenged THP-1 cells (4 hours) after a pre-incubation (1 hour) with increasing concentrations of epirubicin. Results shown represent mean ± standard deviation from triplicate samples in one of 3 independent assays. (C) is a transcriptional profiling of THP-1 cell line response to epirubicin and unsupervised clustering of microarray expression profiles. […] Plots depict relative expression of IL-1β, TNF, CCL2, CXCL10, STAT1, STAT2, START4 and STAT5a as assessed by qRT-PCR in E. coli challenged THP-1 cells (4 hours) after a pre-incubation (1 hour) with 5µM epirubicin. […] Results shown represent mean values ± SEM from triplicate readings per animal. […] (D) relates to the expression of IL-1β, TNF, CCL2 and CXCL10 as assessed by qRT-PCR in THP-1 cells treated as in (C). […]

muHV-4 virus = experiment: Clearance of a secondary intranasal infection one week after administration; type: in vivo; conditions: compared with control mice, unpublished data
IL-1β [5] = experiment: Concentration-response validation: IL-1β production by E. coli challenged THP-1 cells; type: cell-based, human
Method: as §4

THP-1 cells = experiment: Autophagy induction in THP-1 cells, flow cytometry with Cyto-ID Green; type: cell-based, human; conditions: KU-55933 2µM plus epirubicin 1µM (1 hour), PFA-fixed E. coli 4 hours

Molecule | Z score IL1b (IL-1β [2]) | Z score TNFa (TNF [3]) | also measured
COc1cccc2c1C(=O)c1c(O)c3c(c(O)c1C2=O)C[C@@](O)(C(C)=O)C[C@@H]3O[C@H]1C[C@H](N)[C@H](O)[C@H](C)O1 [Daunorubicin] | -0,995459172 | -3,007093086 | protection against severe CLP (survival, in words) [1]: comparable protection
COc1cccc2c1C(=O)c1c(O)c3c(c(O)c1C2=O)C[C@@](O)(C(=O)CO)C[C@@H]3O[C@H]1C[C@H](N)[C@H](O)[C@H](C)O1 [Doxorubicin] | -2,412138965 | -4,071115136 | protection against severe CLP (survival, in words) [1]: comparable protection
COc1cccc2c1C(=O)c1c(O)c3c(c(O)c1C2=O)C[C@@](O)(C(=O)CO)C[C@@H]3O[C@H]1C[C@H](N)[C@@H](O)[C@H](C)O1 [Epirubicin hydrochloride] | -1,212875226 | -4,474857631 | IC50 (TNF [4]): 500 nM; increase of survival of mice subjected to CLP ([1]; i.p. in PBS at the time of CLP and 24hrs later, total 1.2µg/g body weight, no antibiotic, wildtype C57BL/6): ~80%; immune competence: clearance of secondary intranasal muHV-4 infection (muHV-4 virus): not immunocompromised; IC50 (IL-1β [5]; Homo sapiens, THP-1, read-out: half-inhibitory concentration (IC50) for IL-1β): 400 nM
O=c1cc(-c2cccc3c2Sc2ccccc2S3)oc(N2CCOCC2)c1 [KU-55933] | – | – | effect of ATM inhibitor pre-treatment on epirubicin-induced autophagy (THP-1 cells): eliminates this effect; rescue of epirubicin-mediated IL-1β down-regulation (IL-1β [5]; KU-55933 2µM together with epirubicin 1µM, THP-1 cells, E. coli 4 hours): could be rescued
COc1cc([C@@H]2c3cc4c(cc3[C@@H](O[C@@H]3O[C@@H]5CO[C@@H](C)O[C@H]5[C@H](O)[C@H]3O)[C@H]3COC(=O)[C@H]23)OCO4)cc(OC)c1O [etoposide] | – | – | rescue of mortality induced by CLP ([1]; etoposide 2.0µg/g body weight, at the time of procedure and 24 hours later, wildtype C57BL/6): only partially rescues the mortality induced by CLP
Colistin sulfate | -0,918619053 | -3,457325884 | –
Gramicidin | -1,84556962 | -2,91855912 | –
Mepartricin | -1,081865327 | -2,504992413 | –
Pyrithione zinc | -1,872292546 | -2,951809549 | –

Source: EP2753335B1, “AN ANTHRACYCLINE FOR THE TREATMENT OF SEPSIS” (Instituto de Medicina Molecular, priority 2011, dated 2013)
